Reference: ChEMBL document CHEMBL4145553, “Design, synthesis, and biological evaluation of novel amide and hydrazide based thioether analogs targeting Histone deacteylase (HDAC) enzymes” (Eur J Med Chem, 2018)

Tests used:
Assay type in all cases: functional
[1] = system: NCI-H23; experiment: Growth inhibition of human NCI-H23 cells assessed as cell growth at 10^-7 M incubated for 48 hrs by sulforhodamine B assay relative to control; conditions: NCI-H23, 48 h, read-out: Activity
[2] = system: NCI-H460; experiment: Growth inhibition of human NCI-H460 cells assessed as cell growth at 10^-4 M incubated for 48 hrs by sulforhodamine B assay relative to control; conditions: NCI-H460, 48 h, read-out: Activity
[3] = system: RXF 393; experiment: Growth inhibition of human RXF393 cells assessed as cell growth at 10^-6 M incubated for 48 hrs by sulforhodamine B assay relative to control; conditions: RXF 393, 48 h, read-out: Activity
[4] = system: HCC 2998; experiment: Growth inhibition of human HCC2998 cells assessed as cell growth at 10^-5 M incubated for 48 hrs by sulforhodamine B assay relative to control; conditions: HCC 2998, 48 h, read-out: Activity
[5] = system: MCF7; experiment: Growth inhibition of human MCF7 cells assessed as cell growth at 10^-8 M incubated for 48 hrs by sulforhodamine B assay relative to control; conditions: MCF7, 48 h, read-out: Activity
[6] = system: U-251; experiment: Growth inhibition of human U251 cells assessed as cell growth at 10^-6 M incubated for 48 hrs by sulforhodamine B assay relative to control; conditions: U-251, 48 h, read-out: Activity
[7] = system: MDA-MB-468; experiment: Growth inhibition of human MDA-MB-468 cells assessed as cell growth at 10^-5 M incubated for 48 hrs by sulforhodamine B assay relative to control; conditions: MDA-MB-468, 48 h, read-out: Activity
[8] = system: SN12C; experiment: Growth inhibition of human SN12C cells incubated for 48 hrs by sulforhodamine B assay
[9] = system: HL-60(TB); experiment: Growth inhibition of human HL-60(TB) cells assessed as cell growth at 10^-7 M incubated for 48 hrs by sulforhodamine B assay relative to control; conditions: HL-60, 48 h, read-out: Activity
[10] = system: BT-549; experiment: Growth inhibition of human BT549 cells incubated for 48 hrs by sulforhodamine B assay; conditions: BT-549, 48 h
[11] = system: TK-10; experiment: Growth inhibition of human TK10 cells assessed as cell growth at 10^-8 M incubated for 48 hrs by sulforhodamine B assay relative to control; conditions: TK-10, 48 h, read-out: Activity
[12] = system: SNB-75; experiment: Growth inhibition of human SNB75 cells incubated for 48 hrs by sulforhodamine B assay; conditions: SNB-75, 48 h
[13] = system: NCI-H460; experiment: Growth inhibition of human NCI-H460 cells assessed as cell growth at 10^-6 M incubated for 48 hrs by sulforhodamine B assay relative to control; conditions: NCI-H460, 48 h, read-out: Activity
[14] = system: MOLT-4; experiment: Growth inhibition of human MOLT4 cells assessed as cell growth at 10^-6 M incubated for 48 hrs by sulforhodamine B assay relative to control; conditions: MOLT-4, 48 h, read-out: Activity
[15] = system: HL-60; experiment: Cell cycle arrest in human HL60 cells assessed as accumulation at G1-phase by propidium iodide staining based flow cytometry (reference value: 67.27%)
[16] = system: HCT-116; experiment: Growth inhibition of human HCT116 cells assessed as cell growth at 10^-8 M incubated for 48 hrs by sulforhodamine B assay relative to control; conditions: HCT-116, 48 h, read-out: Activity
[17] = system: SK-MEL-2; experiment: Growth inhibition of human SK-MEL-2 cells assessed as cell growth at 10^-6 M incubated for 48 hrs by sulforhodamine B assay relative to control; conditions: SK-MEL-2, 48 h, read-out: Activity
[18] = system: NCI/ADR-RES; experiment: Growth inhibition of human NCI/ADR-RES cells assessed as cell growth at 10^-5 M incubated for 48 hrs by sulforhodamine B assay relative to control; conditions: read-out: Activity
[19] = system: NCI/ADR-RES; experiment: Growth inhibition of human NCI/ADR-RES cells assessed as cell growth at 10^-4 M incubated for 48 hrs by sulforhodamine B assay relative to control; conditions: read-out: Activity
[20] = system: LOX IMVI; experiment: Growth inhibition of human LOXIMVI cells incubated for 48 hrs by sulforhodamine B assay
[21] = system: MDA-MB-231; experiment: Growth inhibition of human MDA-MB-231 cells incubated for 48 hrs by sulforhodamine B assay; conditions: MDA-MB-231, 48 h
[22] = system: SW-620; experiment: Growth inhibition of human SW620 cells assessed as cell growth at 10^-6 M incubated for 48 hrs by sulforhodamine B assay relative to control; conditions: SW-620, 48 h, read-out: Activity
[23] = system: SR; experiment: Growth inhibition of human SR cells assessed as cell growth at 10^-8 M incubated for 48 hrs by sulforhodamine B assay relative to control; conditions: read-out: Activity
[24] = system: HL-60(TB); experiment: Growth inhibition of human HL-60(TB) cells assessed as cell growth at 10^-4 M incubated for 48 hrs by sulforhodamine B assay relative to control; conditions: HL-60, 48 h, read-out: Activity
[25] = system: ACHN; experiment: Growth inhibition of human ACHN cells assessed as cell growth at 10^-8 M incubated for 48 hrs by sulforhodamine B assay relative to control; conditions: read-out: Activity
[26] = system: OVCAR-8; experiment: Growth inhibition of human OVCAR8 cells assessed as cell growth at 10^-8 M incubated for 48 hrs by sulforhodamine B assay relative to control; conditions: OVCAR-8, 48 h, read-out: Activity
[27] = system: MOLT-4; experiment: Growth inhibition of human MOLT4 cells assessed as cell growth at 10^-7 M incubated for 48 hrs by sulforhodamine B assay relative to control; conditions: MOLT-4, 48 h, read-out: Activity
[28] = system: SK-OV-3; experiment: Growth inhibition of human SKOV3 cells assessed as cell growth at 10^-4 M incubated for 48 hrs by sulforhodamine B assay relative to control; conditions: SK-OV-3, 48 h, read-out: Activity
[29] = system: TK-10; experiment: Growth inhibition of human TK10 cells incubated for 48 hrs by sulforhodamine B assay; conditions: TK-10, 48 h
[30] = system: SK-MEL-28; experiment: Growth inhibition of human SK-MEL-28 cells assessed as cell growth at 10^-7 M incubated for 48 hrs by sulforhodamine B assay relative to control; conditions: SK-MEL-28, 48 h, read-out: Activity
[31] = read-out: LC50 (the source's name)
[32] = read-out: pLC50 (the source's name) (converted)

CCS/C(Nc1ccccc1)=C(\C#N)C(=O)Nc1ccc(OC)cc1
growth at 0.1 µM [1]: 99% | growth at 100 µM [2]: -9% | growth at 1 µM [3]: 82% | growth at 10 µM [4]: 41% | growth at 0.01 µM [5]: 98% | growth at 1 µM [6]: 94% | growth at 10 µM [7]: -9% | GI50 ([8]; read-out: GI50): 5.91 µM | CC50 [8, 31]: > 100 µM | TGI ([8]; read-out: TGI): > 100 µM | GI50 ([8]; read-out: pGI50 (converted)): 5.89 µM | CC50 [8, 32]: > 100 µM | TGI ([8]; read-out: pTGI): > 100 µM | growth at 0.1 µM [9]: 89% | GI50 ([10]; read-out: GI50): 2.8 µM | CC50 [10, 31]: > 100 µM | TGI ([10]; read-out: TGI): > 100 µM | GI50 ([10]; read-out: pGI50 (converted)): 2.82 µM | CC50 [10, 32]: > 100 µM | TGI ([10]; read-out: pTGI): > 100 µM | growth at 0.01 µM [11]: 104% | GI50 ([12]; read-out: GI50): 2.13 µM | CC50 [12, 31]: > 100 µM | TGI ([12]; read-out: TGI): 7.21 µM | GI50 ([12]; read-out: pGI50 (converted)): 2.14 µM | CC50 [12, 32]: > 100 µM | TGI ([12]; read-out: pTGI (converted)): 7.24 µM | growth at 1 µM [13]: 90% | growth at 1 µM [14]: 71% | Activity [15]: 54.11% | growth at 0.01 µM [16]: 100% | growth at 1 µM [17]: 86% | growth at 10 µM [18]: 18% | growth at 100 µM [19]: 10% | GI50 ([20]; read-out: GI50): 6.16 µM | CC50 [20, 31]: > 100 µM | TGI ([20]; read-out: TGI): > 100 µM | GI50 ([20]; read-out: pGI50 (converted)): 6.17 µM | CC50 [20, 32]: > 100 µM | TGI ([20]; read-out: pTGI): > 100 µM | GI50 ([21]; read-out: GI50): 4.14 µM | CC50 [21, 31]: > 100 µM | TGI ([21]; read-out: TGI): 36.5 µM | GI50 ([21]; read-out: pGI50 (converted)): 4.17 µM | CC50 [21, 32]: > 100 µM | TGI ([21]; read-out: pTGI (converted)): 36.3 µM | growth at 1 µM [22]: 70% | growth at 0.01 µM [23]: 98% | growth at 100 µM [24]: 2% | growth at 0.01 µM [25]: 101% | growth at 0.01 µM [26]: 100% | growth at 0.1 µM [27]: 90% | growth at 100 µM [28]: -4% | GI50 ([29]; read-out: GI50): 24.3 µM | CC50 [29, 31]: > 100 µM | TGI ([29]; read-out: TGI): > 100 µM | GI50 ([29]; read-out: pGI50 (converted)): 24.5 µM | CC50 [29, 32]: > 100 µM | TGI ([29]; read-out: pTGI): > 100 µM | growth at 0.1 µM [30]: 91%

CCS/C(Nc1ccccc1)=C(\C#N)C(=O)N/N=C\c1ccc(Cl)cc1Cl
growth at 0.1 µM [1]: 97% | growth at 100 µM [2]: 6% | growth at 1 µM [3]: 75% | growth at 10 µM [4]: 33% | growth at 0.01 µM [5]: 97% | growth at 1 µM [6]: 94% | growth at 10 µM [7]: -3% | GI50 ([8]; read-out: GI50): 6.92 µM | CC50 [8, 31]: > 100 µM | TGI ([8]; read-out: TGI): > 100 µM | GI50 ([8]; read-out: pGI50 (converted)): 6.92 µM | CC50 [8, 32]: > 100 µM | TGI ([8]; read-out: pTGI): > 100 µM | growth at 0.1 µM [9]: 91% | GI50 ([10]; read-out: GI50): 2.8 µM | CC50 [10, 31]: > 100 µM | TGI ([10]; read-out: TGI): > 100 µM | GI50 ([10]; read-out: pGI50 (converted)): 2.82 µM | CC50 [10, 32]: > 100 µM | TGI ([10]; read-out: pTGI): > 100 µM | growth at 0.01 µM [11]: 93% | GI50 ([12]; read-out: GI50): 2.15 µM | CC50 [12, 31]: > 100 µM | TGI ([12]; read-out: TGI): 9.37 µM | GI50 ([12]; read-out: pGI50 (converted)): 2.14 µM | CC50 [12, 32]: > 100 µM | TGI ([12]; read-out: pTGI (converted)): 9.33 µM | growth at 1 µM [13]: 91% | growth at 1 µM [14]: 84% | Activity [15]: 46.38% | growth at 0.01 µM [16]: 96% | growth at 1 µM [17]: 86% | growth at 10 µM [18]: 13% | growth at 100 µM [19]: 11% | GI50 ([20]; read-out: GI50): 5.88 µM | CC50 [20, 31]: > 100 µM | TGI ([20]; read-out: TGI): > 100 µM | GI50 ([20]; read-out: pGI50 (converted)): 5.89 µM | CC50 [20, 32]: > 100 µM | TGI ([20]; read-out: pTGI): > 100 µM | GI50 ([21]; read-out: GI50): 4.75 µM | CC50 [21, 31]: > 100 µM | TGI ([21]; read-out: TGI): > 100 µM | GI50 ([21]; read-out: pGI50 (converted)): 4.79 µM | CC50 [21, 32]: > 100 µM | TGI ([21]; read-out: pTGI (converted)): > 100 µM | growth at 1 µM [22]: 88% | growth at 0.01 µM [23]: 91% | growth at 100 µM [24]: 5% | growth at 0.01 µM [25]: 102% | growth at 0.01 µM [26]: 94% | growth at 0.1 µM [27]: 82% | growth at 100 µM [28]: 12% | GI50 ([29]; read-out: GI50): 10.2 µM | CC50 [29, 31]: > 100 µM | TGI ([29]; read-out: TGI): > 100 µM | GI50 ([29]; read-out: pGI50 (converted)): 10.2 µM | CC50 [29, 32]: > 100 µM | TGI ([29]; read-out: pTGI): > 100 µM | growth at 0.1 µM [30]: 95%
